“Also recorded” adds a separate entry of the source.
Assays:
cholesterol = details: clinical use; J. K. Reddy et al., Nature, Vol. 283, 397-398, 1980; cited from earlier work
[1] = tested on: rats fed with normal feed (serum cholesterol); test: Blood cholesterol lowering activity in rats fed with normal feed (Experiment 1); format: in vivo, Wistar male rats; details: for Serum cholesterol level, mean ± S.E. / Percentage change of serum cholesterol: once a day for 7 days; for Percentage change of serum cholesterol: vs untreated group
Description: It was done by a method similar to that of A. V. Ginocchio et al. (cf. A. V. Ginocchio et al., Arzneim.Forsch./Drug Res., Vol. 30, 2032-2034, 1980).
Wistar male rats (weighing 100-130 g, one group: 6 rats) were administered with a suspension of the test compound in 3 w/v % aqueous gum arabic solution once a day for 7 days. 24 hours after the final administration of the test compound, under light anesthesia with ether, the femoral artery and vein were cut and blood was collected therefrom. The blood was centrifuged at 3,000 r.p.m. for 10 minutes to collect serum. The serum cholesterol was measured by an enzymatic method using an agent for measuring total cholesterol (Determiner® TC "5", manufactured by Kyowa Medex Co., Ltd.) (cf. Charles C. Allain et al., Clin. Chem., Vol. 20, 470-475, 1974).
From the data thus obtained, a mean value (X) of the serum cholesterol level in the group to which no test compound was administered and a mean value (Y) of the serum cholesterol level in the group to which the test compound was administered were calculated, and the significant difference between them was tested (t-test). From the resulting data, the percentage change of serum cholesterol in the test compound-administering group was calculated by the following equation. [formula]

[2] = tested on: mice fed with normal feed (serum cholesterol); test: Blood cholesterol lowering activity in mice fed with normal feed (Experiment 2); format: in vivo, ddY male mice; details: for Serum cholesterol level, mean ± S.E. / Percentage change of serum cholesterol: 7 days; for Percentage change of serum cholesterol: vs untreated group
Source text: (2) Test method: It was done by a method similar to that of H. B. Right et al. (cf. H. B. Right et al., J. Med. Chem., Vol. 7, 113-115, 1964). ddY male mice (weighing 21-23 g, one group: 10 mice) were fed with a mixture of the test compound with powdery feed CE-2 (manufactured by CLEA JAPAN INC.) for 7 days. When the mice fed with the feed mixed with the test compound (test compound-administering group) and the mice fed with the feed mixed with no test compound (no test compound-administering group) were compared as to the feed uptake amount and body weight, there was observed no difference between two groups. After feeding for 7 days, under light anesthesia with ether, the femoral artery and vein were cut and blood was collected therefrom. The blood was centrifuged at 3,000 r.p.m. for 10 minutes to collect serum. The serum cholesterol was measured in the same manner as described in Experiment 1. From the data thus obtained, a mean value (X) of the serum cholesterol level in the no test compound-administering group and a mean value (Y) of the serum cholesterol level in the test compound-administering group were calculated, and the significant difference between them was tested (t-test). From the resulting data, the percentage change of serum cholesterol in the test compound-administering group was calculated by the following equation. [formula]

[3] = tested on: hypercholesterolemic mice (plasma cholesterol); test: Blood cholesterol lowering activity in hypercholesterolemic mice (Experiment 3); format: in vivo, ddY male mice; details: for Plasma cholesterol level, mean ± S.E. / Percentage change of plasma cholesterol: orally, three times; for Percentage change of plasma cholesterol: vs untreated group
Source text: (2) Test method: It was done by a method similar to that described in H. Ozawa, Screening of Pharmaceutical Activities for Development of New Drugs - Recent Movement and Practice, Vol. 1, 84-86, 1984 issued by […] Shoin (Tokyo). ddY male mice (weighing 10 - 12 g, one group: 10 mice) were fed with hypercholesterol feed [prepared by mixing CE-2 Feed (manufactured by CLEA JAPAN INC.) with cholesterol 1 w/w %, cholic acid 0.5 w/w % and sucrose 10 w/w %]. After 7 days from the starting of feeding with the hypercholesterol feed, and thereafter 6 hours and further 24 hours (totally three times), a suspension of the test compound in 3 w/v % aqueous gum arabic solution was orally administered. 3 hours after the final administration of the test compound, blood was collected from orbital vessel with hematocrit capillary (manufactured by TERUMO Corporation, treated with heparin). The blood was centrifuged at 10,000 r.p.m. for 2 minutes to collect blood plasma. The plasma cholesterol was measured in the same manner as described in Experiment 1. From the data thus obtained, a mean value (X) of the plasma cholesterol level in the no test compound-administering group and a mean value (Y) of the plasma cholesterol level in the test compound-administering group were calculated, and the significant difference between them was tested (t-test). From the resulting data, the percentage change of plasma cholesterol in the test compound-administering group was calculated by the following equation. [formula]

rats (liver) = test: Test of hepatic toxicity in rats, weight of liver (Experiment 4); format: in vivo, Wistar male rats; details: for Weight of liver, mean ± S.E. / Percentage change of weight of liver: orally, once a day for 7 days; for Percentage change of weight of liver: vs untreated group
Description: Wistar male rats (weighing 100-130 g, one group: […]) were orally administered with a suspension of the test compound in 3 w/v % aqueous gum arabic solution once a day for 7 days. 24 hours after the final administration of the test compound, under light anesthesia with ether, the liver was taken out and the weight thereof was measured.
(§1) From the data thus obtained, a mean value (X) of the weight of liver in the no test compound-administering group and a mean value (Y) of the weight of liver in the test compound-administering group were calculated, and the significant difference between them was tested (t-test). From the resulting data, the percentage change of weight of liver in the test compound-administering group was calculated by the following equation. [formula]

mice (liver) = test: Test of hepatic toxicity in mice, weight of liver (Experiment 5); format: in vivo, ddY male mice; details: for Weight of liver, mean ± S.E. / Percentage change of weight of liver: 7 days; for Percentage change of weight of liver: vs untreated group
Source text: ddY male mice (weighing 21-23 g, one group: 10 mice) were fed with a mixture of the test compound with powdery feed CE-2 (manufactured by CLEA JAPAN INC.) for 7 days. When the mice fed with the feed mixed with the test compound (test compound-administering group) and the mice fed with the feed mixed with no test compound (no test compound-administering group) were compared as to the feed uptake amount and body weight, there was observed no difference between two groups. After feeding for 7 days, under light anesthesia with ether, the liver was taken out, and the weight thereof was measured.
as §1

[4] = Test of acute toxicity (LD50) in mice (Experiment 6); format: in vivo; details: mouse, in vivo, po, orally, 7 days observation, Weil method
Source text: (§2) ddY male mice (weighing 20-25 g, one group: 5 mice) were orally administered with a suspension of the test compound in 3 w/v % aqueous gum arabic solution.

mice = test: as above; format: in vivo; details: orally, result in words
Source text: as §2

[5] = dose per once 100 mg/kg, *** p < 0.001 (compound of this invention)
[6] = conc. of test compd. in feeds 0.025%, *** p < 0.001
[7] = conc. of test compd. in feeds 0.025%
[8] = conc. of test compd. in feeds 0.05%, *** p < 0.001
[9] = conc. of test compd. in feeds 0.05%
[10] = conc. of test compd. in feeds 0.1%, *** p < 0.001
[11] = conc. of test compd. in feeds 0.1%
[12] = conc. of test compd. in feeds 0.05%, ** p < 0.01 (reference compound)
[13] = conc. of test compd. in feeds 0.1%, * p < 0.05 (reference compound)
[14] = dose per once 50 mg/kg, ** p < 0.01
[15] = normal feed, result in words, dihydrochloride
[16] = conc. of test compd. in feeds 0.0125%
[17] = result in words, dihydrochloride

Structure (SMILES): CCOC(=O)C(C)(C)Oc1ccc(Cl)cc1 [clofibrate, ethyl p-chlorophenoxyisobutyrate]
- side effect (cholesterol): hepatic toxicity

Structure (SMILES): CC(C)(Sc1cc(C(C)(C)C)c(O)c(C(C)(C)C)c1)Sc1cc(C(C)(C)C)c(O)c(C(C)(C)C)c1 [Reference compound, reference compound]
- Serum cholesterol level, mean ± S.E. [1, 5]: 70.8 ± 2.0 mg/dL
- Percentage change of serum cholesterol ([1]; dose per once 100 mg/kg): -0.1%
- Serum cholesterol level, mean ± S.E. [2, 6]: 121.7 ± 3.1 mg/dL
- Percentage change of serum cholesterol [2, 7]: -19.0%
- Serum cholesterol level, mean ± S.E. [2, 8]: 104.8 ± 4.4 mg/dL
- Percentage change of serum cholesterol [2, 9]: -30.2%
- Serum cholesterol level, mean ± S.E. [2, 10]: 84.4 ± 5.4 mg/dL
- Percentage change of serum cholesterol [2, 11]: -43.8%
- Plasma cholesterol level, mean ± S.E. [3, 5]: 386.2 ± 10.5 mg/dL
- Percentage change of plasma cholesterol ([3]; dose per once 100 mg/kg): -13.4%
- Weight of liver, mean ± S.E. (rats (liver); dose per once 100 mg/kg): 4.68 ± 0.09 g/100 g of body weight
- Percentage change of weight of liver (rats (liver); dose per once 100 mg/kg): -4.7%
- Weight of liver, mean ± S.E. (mice (liver); [7]): 6.66 ± 0.22 g/100 g of body weight
- Percentage change of weight of liver (mice (liver); [7]): +4.9%
- Weight of liver, mean ± S.E. (mice (liver); [12]): 7.11 ± 0.13 g/100 g of body weight
- Percentage change of weight of liver (mice (liver); [9]): +12.0%
- Weight of liver, mean ± S.E. (mice (liver); [13]): 7.03 ± 0.09 g/100 g of body weight
- Percentage change of weight of liver (mice (liver); [11]): +10.7%
- LD50 at 168 h [4]: > 5000 mg/kg

Structure (SMILES): Cl.Cl.Clc1ccc(CN2CCN(CC=Cc3ccc(Cl)cc3Cl)CC2)cc1 [Compound of this invention, 1-(4-Chlorobenzyl)-4-(2,4-dichlorocinnamyl)-piperazine dihydrochloride]
- Serum cholesterol level, mean ± S.E. ([1]; dose per once 12.5 mg/kg): 67.1 ± 2.1 mg/dL
- Percentage change of serum cholesterol ([1]; dose per once 12.5 mg/kg): -5.4%
- Serum cholesterol level, mean ± S.E. ([1]; dose per once 25 mg/kg, *** p < 0.001): 62.8 ± 0.8 mg/dL
- Percentage change of serum cholesterol ([1]; dose per once 25 mg/kg): -11.4%
- Serum cholesterol level, mean ± S.E. [1, 14]: 64.4 ± 1.6 mg/dL
- Percentage change of serum cholesterol ([1]; dose per once 50 mg/kg): -9.2%
- Serum cholesterol level, mean ± S.E. [1, 5]: 44.6 ± 2.1 mg/dL
- Percentage change of serum cholesterol ([1]; dose per once 100 mg/kg): -37.1%
- serum cholesterol lowering activity in comparison with probucol [1, 15]: higher activities than those of probucol in all experiments; also recorded: more potent serum cholesterol lowering activity in comparison with the known probucol
- Serum cholesterol level, mean ± S.E. ([2]; conc. of test compd. in feeds 0.0125%, * p < 0.05): 130.7 ± 6.5 mg/dL
- Percentage change of serum cholesterol [2, 16]: -13.0%
- Serum cholesterol level, mean ± S.E. [2, 6]: 121.0 ± 3.7 mg/dL
- Percentage change of serum cholesterol [2, 7]: -19.4%
- Serum cholesterol level, mean ± S.E. [2, 8]: 62.9 ± 6.4 mg/dL
- Percentage change of serum cholesterol [2, 9]: -58.1%
- Serum cholesterol level, mean ± S.E. [2, 10]: 31.7 ± 3.7 mg/dL
- Percentage change of serum cholesterol [2, 11]: -78.9%
- serum cholesterol lowering activity in comparison with probucol [2, 15]: more potent serum cholesterol lowering activity in comparison with the known probucol; also recorded: higher activities than those of probucol in all experiments
- Plasma cholesterol level, mean ± S.E. ([3]; dose per once 25 mg/kg, ** p < 0.01): 313.1 ± 26.0 mg/dL
- Percentage change of plasma cholesterol ([3]; dose per once 25 mg/kg): -29.8%
- Plasma cholesterol level, mean ± S.E. [3, 14]: 314.5 ± 16.3 mg/dL
- Percentage change of plasma cholesterol ([3]; dose per once 50 mg/kg): -29.5%
- Plasma cholesterol level, mean ± S.E. [3, 5]: 256.0 ± 19.4 mg/dL
- Percentage change of plasma cholesterol ([3]; dose per once 100 mg/kg): -42.6%
- plasma cholesterol lowering activity in comparison with probucol [3, 17]: more potent plasma cholesterol lowering activity in comparison with the known probucol; also recorded: higher activities than those of probucol in all experiments
- Weight of liver, mean ± S.E. (rats (liver); dose per once 12.5 mg/kg): 4.77 ± 0.07 g/100 g of body weight
- Percentage change of weight of liver (rats (liver); dose per once 12.5 mg/kg): -2.9%
- Weight of liver, mean ± S.E. (rats (liver); dose per once 25 mg/kg): 4.93 ± 0.10 g/100 g of body weight
- Percentage change of weight of liver (rats (liver); dose per once 25 mg/kg): +0.4%
- Weight of liver, mean ± S.E. (rats (liver); dose per once 50 mg/kg): 5.05 ± 0.08 g/100 g of body weight
- Percentage change of weight of liver (rats (liver); dose per once 50 mg/kg): +2.9%
- Weight of liver, mean ± S.E. (rats (liver); dose per once 100 mg/kg): 5.17 ± 0.07 g/100 g of body weight
- Percentage change of weight of liver (rats (liver); dose per once 100 mg/kg): +5.3%
- change in the weight of liver (hepatic toxicity) (rats (liver); [17]): did not give any significant change in the weight of liver; also recorded: did not give any effect on the weight of liver
- Weight of liver, mean ± S.E. (mice (liver); [16]): 6.80 ± 0.22 g/100 g of body weight
- Percentage change of weight of liver (mice (liver); [16]): +7.1%
- Weight of liver, mean ± S.E. (mice (liver); [7]): 6.63 ± 0.22 g/100 g of body weight
- Percentage change of weight of liver (mice (liver); [7]): +4.4%
- Weight of liver, mean ± S.E. (mice (liver); [12]): 6.86 ± 0.30 g/100 g of body weight
- Percentage change of weight of liver (mice (liver); [9]): +8.0%
- Weight of liver, mean ± S.E. (mice (liver); [13]): 6.43 ± 0.42 g/100 g of body weight
- Percentage change of weight of liver (mice (liver); [11]): +1.3%
- change in the weight of liver (hepatic toxicity) (mice (liver); [17]): did not give any significant change in the weight of liver; also recorded: did not give any effect on the weight of liver
- LD50 at 168 h [4]: 996 mg/kg
- acute toxicity (mice): low acute toxicity
